Data taken from the CheMixHub ionic liquid set.

Assay: xn = mol fraction of the nth substance listed

CCn1cc[nH+]c1.O=S(=O)([N-]S(=O)(=O)C(F)(F)F)C(F)(F)F + O
Details	electrical conductivity [S/m]	viscosity [mPa·s]
297.55 K, 101 kPa, x1 = 0.5	–	15.8
297.55 K, 101 kPa, x1 = 0.889	–	44.9
303.15 K, 100 kPa, x1 = 0.366	1.77	–
303.15 K, 100 kPa, x1 = 0.403	1.6	–
303.15 K, 100 kPa, x1 = 0.427	1.53	–
303.15 K, 100 kPa, x1 = 0.455	1.44	–
303.15 K, 100 kPa, x1 = 0.491	1.35	–
303.15 K, 100 kPa, x1 = 0.519	1.24	–
303.15 K, 100 kPa, x1 = 0.554	1.15	–
303.15 K, 100 kPa, x1 = 0.592	1.05	–
303.15 K, 100 kPa, x1 = 0.634	0.948	–
303.15 K, 100 kPa, x1 = 0.684	0.845	–
303.15 K, 100 kPa, x1 = 0.712	0.785	–
303.15 K, 100 kPa, x1 = 0.743	0.729	–
303.15 K, 100 kPa, x1 = 0.776	0.672	–
303.15 K, 100 kPa, x1 = 0.811	0.619	–
303.15 K, 100 kPa, x1 = 0.851	0.57	–
303.15 K, 100 kPa, x1 = 0.896	0.516	–
303.15 K, 100 kPa, x1 = 0.943	0.464	–
303.15 K, 100 kPa, x2 = 0.003	0.424	–

CSCC[C@H](N)C(=O)O + CCCCCCCCCCCC[N+](C)(C)C.[Br-] + O
viscosity [mPa·s], 101 kPa
Details	293.15 K	298.15 K	303.15 K	308.15 K	313.15 K
x1 = 0.0001801, x2 = 0.0001083	1.019	0.904	0.811	0.746	0.677
x1 = 0.0001801, x2 = 0.0001624	1.024	0.907	0.814	0.749	0.68
x1 = 0.0001801, x2 = 0.0002165	1.03	0.909	0.816	0.75	0.681
x1 = 0.0001801, x2 = 0.0002706	1.034	0.912	0.818	0.752	0.683
x1 = 0.0001801, x2 = 0.0003247	1.04	0.915	0.82	0.754	0.685
x1 = 0.0001801, x2 = 0.0003788	1.044	0.919	0.823	0.756	0.687
x1 = 0.0001801, x2 = 0.0004329	1.046	0.922	0.829	0.758	0.689
x1 = 0.0001801, x2 = 0.0004869	1.049	0.927	0.834	0.76	0.691
x1 = 0.0001801, x2 = 0.000541	1.052	0.931	0.84	0.762	0.694
x1 = 0.0001802, x2 = 5.413e-05	1.013	0.9	0.81	0.745	0.672
x1 = 0.0008997, x2 = 0.0005439	1.07	0.912	0.836	0.761	0.683
x1 = 0.0008998, x2 = 0.0003808	1.061	0.906	0.819	0.751	0.672
x1 = 0.0008998, x2 = 0.0004351	1.063	0.908	0.822	0.753	0.675
x1 = 0.0008998, x2 = 0.0004895	1.066	0.91	0.831	0.756	0.679
x1 = 0.0008999, x2 = 0.000272	1.057	0.902	0.812	0.746	0.668
x1 = 0.0008999, x2 = 0.0003264	1.059	0.904	0.815	0.748	0.67
x1 = 0.0009, x2 = 0.0001632	1.053	0.899	0.809	0.74	0.663
x1 = 0.0009, x2 = 0.0002176	1.054	0.901	0.81	0.743	0.666
x1 = 0.0009001, x2 = 5.441e-05	1.048	0.894	0.805	0.732	0.658
x1 = 0.0009001, x2 = 0.0001088	1.051	0.896	0.807	0.735	0.66
x1 = 0.001798, x2 = 0.0001643	1.062	0.911	0.822	0.745	0.675
x1 = 0.001798, x2 = 0.000219	1.064	0.913	0.824	0.747	0.676
x1 = 0.001798, x2 = 0.0002738	1.066	0.916	0.827	0.749	0.678
x1 = 0.001798, x2 = 0.0003285	1.069	0.919	0.83	0.751	0.681
x1 = 0.001798, x2 = 0.0003832	1.073	0.921	0.832	0.756	0.683
x1 = 0.001798, x2 = 0.0004379	1.076	0.927	0.836	0.76	0.686
x1 = 0.001798, x2 = 0.0004927	1.079	0.932	0.84	0.764	0.692
x1 = 0.001798, x2 = 0.0005474	1.083	0.937	0.844	0.77	0.698
x1 = 0.001799, x2 = 5.476e-05	1.059	0.906	0.818	0.741	0.671
x1 = 0.001799, x2 = 0.0001095	1.06	0.909	0.82	0.743	0.673

O=S(=O)([N-]S(=O)(=O)C(F)(F)F)C(F)(F)F.[Li+] + OCCO
Details	electrical conductivity [S/m]
333 K, 100 kPa, frequency 1 MHz, x1 = 0.5	0.8

Details	viscosity [mPa·s]
333 K, 100 kPa, x1 = 0.5	21.68
